Experimental data published in patent US8759549B2, “Compound extracted from Antrodia cinnamomea and pharmaceutical composition comprising the same” (priority 2010, dated 2014).
Like-named read-outs stand apart in the source and are kept apart here.

How the values were obtained:
[1] = tested on: Colo205 human colorectal cancer cell line; assay: In vitro anti-cancer activity, Colo205 human colorectal cancer cells; type: cell-based; conditions: COLO 205
Experimental: (§1) The anti-cancer effect compound of formula (2) and compounds (3) and (4) were evaluated using the HT29 and Colo205 human colorectal cancer cell lines.
(§2) Human colorectal cancer cells HT29 and Colo205 were plated in a 96-well plate, at a concentration of 1×10^4-5 cells/well. The human colorectal cancer cells were incubated at 37° C. with 5% CO2 overnight. These cancer cells were washed three times with a serum free medium or a phosphate buffer solution (PBS) the next day. The compound of Formula (2) and Compounds (3) and (4) were added to the HT29 and Colo205 human colorectal cancer cells respectively. The experiment was performed three times and the average IC50 value was calculated.

[2] = tested on: HT29 human colorectal cancer cell line; assay: In vitro anti-cancer activity, HT29 human colorectal cancer cells; type: cell-based; conditions: HT-29
Experimental: as §1, §2

[3] = Colo205 human colorectal cancer cells, average of three experiments, FIG. 7, read-out: IC50
[4] = HT29 human colorectal cancer cells, average of three experiments, FIG. 6, read-out: IC50

COc1cc(C)c(OC)c2c1OCO2 [Compound (4)]
IC50 [1, 3]: > 100 µM
IC50 [2, 4]: > 100 µM

C=C(C)C#Cc1c(C)c(OC)c(OC)c(OC)c1OC [compound (3)]
IC50 ([1]; Homo sapiens): 42 µM
IC50 ([2]; Homo sapiens): 59 µM

C=C(C)C#Cc1c(C)c(OC)c2c(c1OC)OCO2 [formula (2), 1,2-methylenedioxy-3,6-bismethoxy-4-(3-methyl-3-alkene-1-butyne)-5-methylbenzene]
IC50 [1, 3]: 9 µM
IC50 [2, 4]: 66 µM
